Data: paper PMC11230868, “eIF2β zinc-binding domain interacts with the eIF2γ subunit through the guanine nucleotide binding interface to promote Met-tRNAi^Met binding” (Bioscience Reports, 2024)
One block for each molecule: values may come before it.

What was measured:
eIF2 complex (eIF2αβγ) = target: T1, eIF2 complex (eIF2αβγ) (Saccharomyces cerevisiae, UniProt P32481); test: fluorescence anisotropy titration of protein; type: binding; details: labelled compound at 100 nM; pH 7.5, 110 mM K acetate, 2.5 mM Mg acetate, 26 °C; Hill fit n = 1
T1 construct: gene GCD11; full-length heterotrimer, 8xHis tag on N-terminus of eIF2γ (GCD11), overexpressed from pRS425_GCD11, SUI3, SUI2 in yeast YP920 (sui2Δ sui3Δ gcd11Δ); Ni-NTA, heparin and cation exchange; with Eukaryotic translation initiation factor 2 subunit alpha
T1 sequence (P32481 whole entry, one chain of several): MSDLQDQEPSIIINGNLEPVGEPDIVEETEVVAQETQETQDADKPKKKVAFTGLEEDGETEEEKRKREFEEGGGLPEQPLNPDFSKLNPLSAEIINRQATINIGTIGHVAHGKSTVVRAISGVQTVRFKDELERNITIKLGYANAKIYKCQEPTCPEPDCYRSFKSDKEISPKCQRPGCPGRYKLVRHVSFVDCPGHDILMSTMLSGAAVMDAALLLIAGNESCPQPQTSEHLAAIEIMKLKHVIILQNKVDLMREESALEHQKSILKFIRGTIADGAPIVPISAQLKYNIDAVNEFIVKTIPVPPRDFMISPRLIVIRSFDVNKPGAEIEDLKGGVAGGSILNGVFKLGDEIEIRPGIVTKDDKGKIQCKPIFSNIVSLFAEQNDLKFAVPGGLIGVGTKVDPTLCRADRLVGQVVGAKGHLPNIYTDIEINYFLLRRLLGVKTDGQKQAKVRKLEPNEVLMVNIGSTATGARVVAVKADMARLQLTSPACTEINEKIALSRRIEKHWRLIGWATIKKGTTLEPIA
T1 sequence (P09064 whole entry partner, one chain of several): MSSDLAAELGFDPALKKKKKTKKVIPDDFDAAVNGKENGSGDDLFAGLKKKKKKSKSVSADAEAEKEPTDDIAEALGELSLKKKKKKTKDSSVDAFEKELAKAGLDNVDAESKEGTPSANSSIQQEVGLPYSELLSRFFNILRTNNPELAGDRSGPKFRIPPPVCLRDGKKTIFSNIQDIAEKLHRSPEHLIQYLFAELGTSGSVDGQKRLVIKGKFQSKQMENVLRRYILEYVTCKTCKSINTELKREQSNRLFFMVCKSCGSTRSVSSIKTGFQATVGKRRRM

[1] = target: T2, N-terminal 3xHA-tagged eIF2γ (wild type) (yeast, UniProt P32481 1-527); test: co-IP; 3xHA-eIF2γ precipitated with anti-HA agarose beads from 300 μg yeast WCE (YP912), 4°C, 1 h; 20 mM HEPES pH 7.5, 100 mM KCl, 5 mM MgCl2, 5 mM NaF, 1 mM EDTA, 0.2% NP-40, 1% BSA; Western blot, bands normalised to the anti-HA band; details: partners not purified
T2 construct: eIF2γ, yeast GCD11; GCD11 ORF + terminator cloned behind GCD11 promoter + 3xHA; also called 3xHA eIF2γ; eIF2γ^WT; source: yeast strain YP912 (gcd11Δ, sui3Δ), single-copy plasmid, in whole-cell extract; not shown: 3xHA, N-terminal, kept
T2 sequence (P32481 whole entry): as the sequence (P32481 whole entry, one chain of several) above

[2] = target: T3, 3xHA-tagged eIF2β T238A mutant (yeast, UniProt P09064 1-285, T238A); test: co-IP; Co-IP of the 3xHA-tagged eIF2β subunit from yeast extract (Supplementary Figure S1); details: partners not purified
T3 construct: eIF2β, yeast SUI3 ORF + terminator with T238A, cloned behind SUI3 promoter + 3xHA; also called 3xHA-SUI3-T238A; source: yeast, single-copy plasmid, in whole-cell extract; not shown: 3xHA, N-terminal, kept
T3 sequence (looked up): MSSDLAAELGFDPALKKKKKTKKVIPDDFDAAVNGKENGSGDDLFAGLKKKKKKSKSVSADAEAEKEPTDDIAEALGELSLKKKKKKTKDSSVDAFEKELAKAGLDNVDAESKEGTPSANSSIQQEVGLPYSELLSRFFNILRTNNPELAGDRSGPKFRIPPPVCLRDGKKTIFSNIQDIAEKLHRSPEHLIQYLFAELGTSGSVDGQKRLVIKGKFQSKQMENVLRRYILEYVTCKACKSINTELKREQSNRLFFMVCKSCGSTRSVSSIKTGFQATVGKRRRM

Kd (eIF2 complex (eIF2αβγ)): 36.7 nM
Molecule: GDP-BODIPY

Kd (eIF2 complex (eIF2αβγ)): 1400 nM
Molecule: GDPγS-BODIPY

fold change of binding in the eIF2β^T238A strain against the eIF2β^WT strain [1]: ~4.5 fold
fold change of binding against the 3xHA-eIF2β wild type [2]: 1.3 fold
B1: eIF2α subunit (natural protein, yeast, UniProt P20459 1-304, looked up)
chain: MSTSHCRFYENKYPEIDDIVMVNVQQIAEMGAYVKLLEYDNIEGMILLSELSRRRIRSIQKLIRVGKNDVAVVLRVDKEKGYIDLSKRRVSSEDIIKCEEKYQKSKTVHSILRYCAEKFQIPLEELYKTIAWPLSRKFGHAYEAFKLSIIDETVWEGIEPPSKDVLDELKNYISKRLTPQAVKIRADVEVSCFSYEGIDAIKDALKSAEDMSTEQMQVKVKLVAAPLYVLTTQALDKQKGIEQLESAIEKITEVITKYGGVCNITMPPKAVTATEDAELQALLESKELDNRSDSEDDEDESDDE
notes: eIF2α, yeast SUI2; chromosomal gene in the co-IP strains, whole SUI2 gene on pRS425 for the purified complex; also called SUI2; source: endogenous, yeast whole-cell extract (YP912); yeast YP920, high-copy pRS425 plasmid, co-purified in the 8xHis-eIF2 complex
